According to patent EP1377579B1 (Aventis Pharmaceuticals Inc., priority 2000, dated 2002):
Like-named read-outs stand apart in the source and are kept apart here.

Legend:
MDA-MB-435 = experiment: In vitro proliferation assay (MTT), MDA-MB-435; assay type: cell-based, human; conditions: Homo sapiens
Procedure, shortened: (§1)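 IC50 values come from absorbance at 570 nm after MTT staining of cells grown with compound for 3 days. Seeding density was 1000 to 2500 cells/well, depending on the line.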

[1] = Bioavailability experiment in mice given single intravenous cassette doses; conditions: for Conc. (ng/ml) in plasma: BLQ = below assay quantification limit; for Cls: mice plasma, single intravenous cassette dose
Jurkat = experiment: In vitro proliferation assay (MTT), Jurkat; assay type: cell-based; conditions: Homo sapiens, read-out: Jurkat Leuk. (IC50 µM)
Procedure, shortened: (§2)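 Tetrazolium (MTT) proliferation test following a 3-day treatment with compound. Read-out is optical density at 570 nm after DMSO solubilization.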

HL-60 = experiment: In vitro proliferation assay (MTT), HL-60; assay type: cell-based; conditions: Homo sapiens
Procedure, shortened: as §2

[2] = Red blood cell binding, mouse whole blood; assay type: in vitro ADME; conditions: 30 minutes at 37°C, 500 ng/ml
Procedure: Compounds, including one positive control, are assessed for red blood cell (RBC) uptake, using a modified procedure based on the protocol reported in Sun, J.X.S., et al. High-performance liquid chromatographic analysis, plasma protein binding and red blood cell partitioning of phenprobamate. Biopharmaceutics and Drug Disposition, 8 (1987) 341-351.
Briefly, RBC uptake is evaluated by comparison of the levels in spiked plasma (n=3) and plasma isolated from spiked whole blood (n=3). Compounds are incubated with human and mouse whole blood, respectively, for 30 minutes at 37°C using a nominal concentration of 500 ng/ml. Following centrifugation, the plasma is removed and submitted for analysis. Each compound is also spiked into blank plasma at a nominal concentration of 500 ng/ml, and submitted for analysis. Levels in the two plasma samples (Cp' and Cp in the equation below) and the blood hematocrit are used to determine the red blood cell to plasma ratio (Crbc/Cp). (Crbc)/(Cp) = (Cpʹ)/(Cp•H)-((1-H))/(H) [formula] In equation 1, Cp' is the level of drug in the spiked "blank" plasma, Cp is the level of drug in the plasma of spiked whole blood, and H is the hematocrit. The hematocrit values are determined as 0.4 for human whole blood and 0.41 for mouse whole blood. The samples are analyzed with ESI LC/MS, using positive ion detection with an internal standard.
The red blood cell to plasma ratio is determined for each compound using equation 1. Tables 6 and 7 summarize the respective mean Crbc/Cp values and standard deviations for mouse and human whole blood, respectively, in descending order based on the red blood cell to plasma ratio, where"*" denotes Positive Control, and "ND" denotes Not Determined. MDL 108552 is included as a positive control for red blood cell uptake. Table 6. Red Blood Cell to Plasma Ratio for compounds in mouse whole blood

PC-3 = experiment: In vitro proliferation assay (MTT), PC-3; assay type: cell-based, human; conditions: Homo sapiens
Procedure, shortened: as §1

HL-60 Human Leukemia = experiment: HL-60 human leukemia xenograft in nude mice; assay type: in vivo; design: key: tumor volume = ½(a × b²) from caliper diameters, in mm^3
Procedure: Antitumor efficacy is assessed using two subcutaneous human tumor xenograft models. The studies are performed using conventional assay techniques. Briefly, HL-60 (leukemia, 5 x10^5 cells) and PC-3 (prostate, 5 x 10^6 cells) tumor cells are injected subcuateously into nude mice (Crl-CD1-Br-nu, Charles River Laboratory, Wilmington, MA). Dosing with compounds began when tumors reached 50 to 100 mm^3. The dose route/schedule for the test compounds is ip/qld (5x/wk). The test doses are set based on the maximum tolerated dose (MTD). […] The test doses for the efficacy studies are set at 1/3rd the MTD (low dose) and the MTD (high dose). The results are shown in Tables 4 and 5 (HL-60, leukemia) (PC-3, prostate cancer). The length of the treatment phase is dependent on the tumor growth rate for the two models. This treatment phase is typically about 3 weeks for the HL-60 model and about 5 weeks for the PC-3 model. […] Dosing with flavopiridol is for the same time frame as for the experimental compounds in both xenograft models. Tumor volume (twice weekly) and body weights (once weekly) are monitored throughout the course of the treatment phase of the experiment. Tumor sizes are measured by external caliper measurements of protruding tumor. Volumes are calculated using the following formula: volume =½ (a x b2), where b is the smaller of two perpendicular diameters.

[3] = MDA-MB-435, MTT assay, value (SD, n) where given, read-out: MB-435 Breast (IC50 µM)
[4] = MTT assay, value (SD, n) where given
[5] = HL-60, MTT assay, value (SD, n) where given, read-out: HL-60 Leuk. (IC50 µM)
[6] = PC-3, MTT assay, value (SD, n) where given, read-out: PC-3 Prostate (IC50 µM)
[7] = Cassette #2, single 18 mg/kg intravenous cassette dose, mice, 24 h
[8] = 3 mg/kg/compound (18 mg/kg Total Dose), Cassette #2
[9] = MDA-MB-435, read-out: MB-435 Breast (IC50 µM)
[10] = HL-60, read-out: HL-60 Leuk. (IC50 µM)
[11] = PC-3, read-out: PC-3 Prostate (IC50 µM)

IC50 (MDA-MB-435; [3]) [µM]	IC50 (Jurkat; [4]) [µM]	IC50 (HL-60; [5]) [µM]	IC50 (PC-3; [6]) [µM]	SMILES	Mean Red Blood Cell to Plasma Ratio [2]	HL60 Mean Vol. ± SD (HL-60 Human Leukemia; Table 4, dose 3 mg/kg ip)	HL60 Mean Vol. ± SD (HL-60 Human Leukemia; Table 4, dose 10 mg/kg ip)	Conc. (ng/ml) in plasma [1, 7]	Cls [1, 8] [mL/min/kg]	IC50 (MDA-MB-435; [9]) [µM]	IC50 (Jurkat) [µM]	IC50 (HL-60; [10]) [µM]	IC50 (PC-3; [11]) [µM]	further results
0.11	0.44	0.12	0.32	Cl.Cl.N#Cc1ccc(S(=O)(=O)N2CCC(Nc3nc(N[C@H]4CC[C@H](N)CC4)nc4c3ncn4C3CCCC3)CC2)cc1 [compound 109, trans-N^2-(4-Amino-cyclohexyl)-9-cyclopentyl-N^6-[1-(4-cyano-benzenesulfonyl)-piperidin-4-yl]-9H-purine-2,6-diamine dihydrochloride]	2.4	2597 ± 2240	3466 ± 3730	–	–	–	–	–	–	Conc. (ng/ml) in plasma ([1]; Cassette #1, single 18 mg/kg intravenous cassette dose, mice, 24 h): BLQ; Cls ([1]; 3 mg/kg/compound (18 mg/kg Total Dose), Cassette #1): 45.1 mL/min/kg
0.21	0.25	0.06	0.23	CCOC(=O)c1ccc(NC(=O)N2CCC(Nc3nc(N[C@H]4CC[C@H](N)CC4)nc4c3ncn4C3CCCC3)CC2)cc1.Cl.Cl [compound 154, trans-4-[(1-{4-[2-(4-Amino-cyclohexylamino)-9-cyclopentyl-9H-purin-6-ylamino]-piperidin-1-yl}-methanoyl)-amino]-benzoic acid ethyl ester dihydrochloride]	17.8	2641 ± 3024	2950 ± 1929	BLQ^a	31.6	–	–	–	–	Conc. (ng/ml) in plasma ([1]; Cassette #2, single 18 mg/kg intravenous cassette dose, mice, 8 h, Mean ± SD): BLQ^a
–	–	–	–	COc1ccc(OC(=O)N2CCC(Nc3nc(N[C@H]4CC[C@H](N)CC4)nc4c3ncn4C3CCCC3)CC2)cc1.Cl.Cl [compound 84, trans-4-[2-(4-Amino-cyclohexylamino)-9-cyclopentyl-9H-purin-6-ylamino]-piperidine-1-carboxylic acid 4-methoxy-phenyl ester dihydrochloride]	3.5	–	–	BLQ	51.8	0.1	0.12	0.04	0.12	HL60 Mean Vol. ± SD (HL-60 Human Leukemia; Table 5, dose 1 mg/kg ip): 4790 ± 6912; HL60 Mean Vol. ± SD (HL-60 Human Leukemia; Table 5, dose 3 mg/kg ip): 4886 ± 3467
–	–	–	–	Cl.Cl.N[C@H]1CC[C@H](Nc2nc(NC3CCN(C(=O)Oc4ccc([N+](=O)[O-])cc4)CC3)c3ncn(C4CCCC4)c3n2)CC1 [compound 89, trans-4-[2-(4-Amino-cyclohexylamino)-9-cyclopentyl-9H-purin-6-ylamino]-piperidine-1-carboxylic acid 4-nitro-phenyl ester dihydrochloride]	4.7	4278 ± 2801	–	–	–	0.06	0.07	0.02	0.06	Cls ([1]; 3 mg/kg/compound (15 mg/kg Total Dose), Cassette #4): 136.5 mL/min/kg; Conc. in plasma ([1]; mice, single 15 mg/kg intravenous cassette dose (3 mg/kg/compound), Cassette #4, 24 h, BLQ = below assay quantification limit (approximately 1 ng/ml)): BLQ; HL60 Mean Vol. ± SD (HL-60 Human Leukemia; Table 4, dose 1 mg/kg ip): 2444 ± 2291
